In US20140257169A1, “USE OF PHOTO[…] PREPARATION OF VIRUS-INACTIVATING MEDICAMENTS FOR TREATING DISEASES” (Beijing Ecyber Medical Technology R & D Center Co. , Ltd., priority 2013, published 2014):

System: thoracic aorta blood vessel plaque
Details: high fat/high cholesterol fed rabbit; 5-ALA 80 mg/kg intraperitoneal 1.5 h before; substrate (carbamide peroxide) intravenously infused; irradiation once with 5 Gy; examined on the seventh day
Source text: The New-Zealand rabbit model of blood vessel plaque is a common animal experimental model. […] The blood vessel plaque was taken as the target region and positioned, and a radiotherapy plan was made.

SMILES: NCC(=O)CCC(=O)O [5-ALA]
- regression of thoracic aorta blood vessel plaque (CTA angiography and MR): completely disappeared
